Measurements from paper PMC11855827, “High-Throughput Screening of Five Compound Libraries for Anthelmintic Activity and Toxicity Leads to the Discovery of Two Flavonoid Compounds” (International Journal of Molecular Sciences, 2025).
“And” between values parts separate entries of the source, which are not always exact repeats. Equal entries are not always repeated. Where two headings read alike, the source gives them in different places.

Test system: C. elegans
[1] = Table S2, C. elegans SS assay, 110 μM, 0 h, averages of 4 data points
[2] = Table S2, C. elegans SS assay, 110 μM, 24 h, averages of 4 data points

C[C@H](CC[C@@H](O[C@@H]1O[C@H](CO)[C@@H](O)[C@H](O)[C@H]1O[C@@H]1O[C@H](CO)[C@@H](O)[C@H](O)[C@H]1O)C(C)(C)O)[C@H]1CC[C@@]2(C)[C@H]3CC=C4[C@@H](CC[C@H](O[C@@H]5O[C@H](CO[C@@H]6O[C@H](CO)[C@@H](O)[C@H](O)[C@H]6O)[C@@H](O)[C@H](O)[C@H]5O)C4(C)C)[C@]3(C)[C@H](O)C[C@]12C [Mogroside IV]
Percentage of motility inhibition 0 h [1]: 0% | Percentage of motility inhibition 24 h [2]: 43%

C[C@H](CC[C@@H](O[C@@H]1O[C@H](CO[C@@H]2O[C@H](CO)[C@@H](O)[C@H](O)[C@H]2O)[C@@H](O)[C@H](O)[C@H]1O[C@@H]1O[C@H](CO)[C@@H](O)[C@H](O)[C@H]1O)C(C)(C)O)[C@H]1CC[C@@]2(C)[C@@H]3CC=C4[C@@H](CC[C@H](O[C@@H]5O[C@H](CO[C@@H]6O[C@H](CO)[C@@H](O)[C@H](O)[C@H]6O)[C@@H](O)[C@H](O)[C@H]5O)C4(C)C)[C@]3(C)[C@H](O)C[C@]12C [Mogroside V]
Percentage of motility inhibition 0 h [1]: 19% | Percentage of motility inhibition 24 h [2]: 12%

CC1(C)CC[C@]2(C(=O)O[C@@H]3O[C@H](CO)[C@@H](O)[C@H](O)[C@H]3O)CC[C@]3(C)C(=CC[C@@H]4[C@@]5(C)CC[C@H](O[C@@H]6O[C@H](C(=O)O)[C@@H](O)[C@H](O[C@@H]7OC[C@@H](O)[C@H](O)[C@H]7O)[C@H]6O)C(C)(C)[C@@H]5CC[C@]43C)[C@@H]2C1 [Momordin IIc]
Percentage of motility inhibition 0 h [1]: 0% | Percentage of motility inhibition 24 h [2]: 0%

CC1(C)CC[C@]2(C(=O)O)CC[C@]3(C)C(=CC[C@@H]4[C@@]5(C)CC[C@H](O[C@@H]6O[C@H](C(=O)O)[C@@H](O)[C@H](O[C@@H]7OC[C@@H](O)[C@H](O)[C@H]7O)[C@H]6O)C(C)(C)[C@@H]5CC[C@]43C)[C@@H]2C1 [Momordin Ic]
Percentage of motility inhibition 0 h [1]: 12% | Percentage of motility inhibition 24 h [2]: 4%

O=C(O)C1=CO[C@@H](O[C@@H]2O[C@H](CO)[C@@H](O)[C@H](O)[C@H]2O)[C@H]2[C@@H]1C=C[C@]2(O)CO [Monotropein]
Percentage of motility inhibition 0 h [1]: 0% | Percentage of motility inhibition 24 h [2]: 0%

Cl.N=C(N=C(N)N)N1CCOCC1 [Moroxydine (hydrochloride)]
Percentage of motility inhibition 0 h [1]: 13% | Percentage of motility inhibition 24 h [2]: 8%

CO[C@@]1(NC(=O)C(C(=O)[O-])c2ccc(O)cc2)C(=O)N2C(C(=O)[O-])=C(CSc3nnnn3C)CO[C@@H]21.[Na+].[Na+] (some centres unmarked) [Moxalactam (sodium salt)]
Percentage of motility inhibition 0 h [1]: 22% | Percentage of motility inhibition 24 h [2]: 8%

CC(C)=CCc1c(-c2ccc(O)cc2O)oc2c(CC=C(C)C)c(O)cc(O)c2c1=O [Mulberrin]
Percentage of motility inhibition 0 h [1]: 32% | Percentage of motility inhibition 24 h [2]: 5%

CNc1nc2nc[nH]c2c(=O)[nH]1 [N2‐Methylguanine]
Percentage of motility inhibition 0 h (110 µM): 14% | Percentage of motility inhibition 24 h (110 µM): 43%

CC1(C)CC(NC(=O)C(=O)Nc2ccc(Cl)cc2)CC(C)(C)N1 [NBD‐556]
Percentage of motility inhibition 0 h [1]: 45% | Percentage of motility inhibition 24 h [2]: 11%

CC1(C)CC(NC(=O)C(=O)Nc2ccc(Br)cc2)CC(C)(C)N1 [NBD‐557]
Percentage of motility inhibition 0 h [1]: 22% | Percentage of motility inhibition 24 h [2]: 14%

C[C@@]1(O)[C@H](O)[C@@H](CO)O[C@H]1n1ccc(N)nc1=O [NM107]
Percentage of motility inhibition 0 h [1]: 37% | Percentage of motility inhibition 24 h [2]: 27%

CCOc1ccc2ccccc2c1C(=O)N[C@@H]1C(=O)N2[C@@H]1SC(C)(C)[C@@H]2C(=O)[O-].O.[Na+] [Nafcillin (sodium monohydrate)]
Percentage of motility inhibition 0 h [1]: 12% | Percentage of motility inhibition 24 h [2]: 2%

CCn1cc(C(=O)[O-])c(=O)c2ccc(C)nc21.[Na+] [Nalidixic acid (sodium salt)]
Percentage of motility inhibition 0 h [1]: 0% | Percentage of motility inhibition 24 h [2]: 0%

CC(C)(C)NCc1cc(Nc2ccnc3cc(Cl)ccc23)c2c(c1O)CCCC2.O=P(O)(O)O.O=P(O)(O)O [Naphthoquine (phosphate)]
Percentage of motility inhibition 0 h [1]: 28% | Percentage of motility inhibition 24 h [2]: 8%

O=C1N[C@@H]2C(=C[C@H](O)[C@@H](O)[C@H]2O)c2cc3c(c(O)c21)OCO3 [Narciclasine]
Percentage of motility inhibition 0 h [1]: 32% | Percentage of motility inhibition 24 h [2]: 14%

CC(=O)Oc1ccc([C@@H]2CC(=O)c3c(OC(C)=O)cc(OC(C)=O)cc3O2)cc1 [Naringenin triacetate]
Percentage of motility inhibition 0 h [1]: 0% | Percentage of motility inhibition 24 h [2]: 14%

C[C@@H]1O[C@@H](O[C@H]2[C@H](Oc3cc(O)c(C(=O)CCc4ccc(O)cc4)c(O)c3)O[C@H](CO)[C@@H](O)[C@@H]2O)[C@H](O)[C@H](O)[C@H]1O [Naringin Dihy drochalcone]
Percentage of motility inhibition 0 h [1]: 14% | Percentage of motility inhibition 24 h [2]: 1%

CS(=O)(=O)O.Cc1c(O)cccc1C(=O)N[C@@H](CSc1ccccc1)[C@H](O)CN1C[C@H]2CCCC[C@H]2C[C@H]1C(=O)NC(C)(C)C [Nelfinavir (Mesylate)]
Percentage of motility inhibition 0 h [1]: 47% | Percentage of motility inhibition 24 h [2]: 5%

N#C[C@@H](O[C@@H]1O[C@H](CO[C@@H]2O[C@H](CO)[C@@H](O)[C@H](O)[C@H]2O)[C@@H](O)[C@H](O)[C@H]1O)c1ccccc1 [Neoamygdalin]
Percentage of motility inhibition 0 h [1]: 0% | Percentage of motility inhibition 24 h [2]: 0%

COc1ccc(-c2cc(=O)c3c(O)cc(O[C@@H]4O[C@H](CO)[C@@H](O)[C@H](O)[C@H]4O[C@@H]4O[C@@H](C)[C@H](O)[C@@H](O)[C@H]4O)cc3o2)cc1O [Neodiosmin]
Percentage of motility inhibition 0 h [1]: 14% | Percentage of motility inhibition 24 h [2]: 6%

C[C@@H]1O[C@@H](O[C@H]2[C@H](Oc3cc(O)c4c(c3)O[C@H](c3ccc(O)c(O)c3)CC4=O)O[C@H](CO)[C@@H](O)[C@@H]2O)[C@H](O)[C@H](O)[C@H]1O [Neoeriocitrin]
Percentage of motility inhibition 0 h [1]: 6% | Percentage of motility inhibition 24 h [2]: 13%

COc1ccc([C@@H]2CC(=O)c3c(O)cc(O[C@@H]4O[C@H](CO)[C@@H](O)[C@H](O)[C@H]4O[C@@H]4O[C@@H](C)[C@H](O)[C@@H](O)[C@H]4O)cc3O2)cc1O [Neohesperidin]
Percentage of motility inhibition 0 h [1]: 14% | Percentage of motility inhibition 24 h [2]: 0%

C[C@@H]1O[C@@H](O[C@H]2C(=O)c3c(O)cc(O)cc3O[C@H]2c2ccc(O)c(O)c2)[C@H](O)[C@H](O)[C@H]1O [Neoisoastilbin]
Percentage of motility inhibition 0 h [1]: 0% | Percentage of motility inhibition 24 h [2]: 0%

O=C(/C=C/c1ccc(O)cc1)c1ccc(O[C@@H]2O[C@H](CO)[C@@H](O)[C@H](O)[C@H]2O)cc1O [Neoisoliquiritin]
Percentage of motility inhibition 0 h [1]: 17% | Percentage of motility inhibition 24 h [2]: 11%

O=C1C[C@@H](c2ccc(O)cc2)Oc2cc(O[C@@H]3O[C@H](CO)[C@@H](O)[C@H](O)[C@H]3O)ccc21 [Neoliquiritin]
Percentage of motility inhibition 0 h [1]: 0% | Percentage of motility inhibition 24 h [2]: 20%

O=c1c2cc(O[C@@H]3O[C@H](CO)[C@@H](O)[C@H](O)[C@H]3O)c(O)cc2oc2cc(O)c([C@@H]3O[C@H](CO)[C@@H](O)[C@H](O)[C@H]3O)c(O)c12 [Neomangiferin]
Percentage of motility inhibition 0 h [1]: 7% | Percentage of motility inhibition 24 h [2]: 17%

NC[C@@H]1O[C@H](O[C@H]2[C@@H](O)[C@H](O[C@@H]3[C@@H](O)[C@H](N)C[C@H](N)[C@H]3O[C@H]3O[C@H](CN)[C@@H](O)[C@H](O)[C@H]3N)O[C@@H]2CO)[C@H](N)[C@@H](O)[C@@H]1O.O=S(=O)(O)O [Neomycin (sulfate)]
Percentage of motility inhibition 0 h [1]: 21% | Percentage of motility inhibition 24 h [2]: 3%

C=CC(=C)CCCC(C)CCCC(C)CCCC(C)C (centres unmarked) [Neophytadiene]
Percentage of motility inhibition 0 h [1]: 3% | Percentage of motility inhibition 24 h [2]: 6%

COc1c(O)cc2oc(-c3ccc(O)c(O)c3)cc(=O)c2c1O [Nepetin]
Percentage of motility inhibition 0 h [1]: 4% | Percentage of motility inhibition 24 h [2]: 17%

CCN[C@@H]1C[C@H](N)[C@@H](O[C@H]2OC(CN)=CC[C@H]2N)[C@H](O)[C@H]1O[C@H]1OC[C@](C)(O)[C@H](NC)[C@H]1O.CCN[C@@H]1C[C@H](N)[C@@H](O[C@H]2OC(CN)=CC[C@H]2N)[C@H](O)[C@H]1O[C@H]1OC[C@](C)(O)[C@H](NC)[C@H]1O.O=S(=O)(O)O.O=S(=O)(O)O.O=S(=O)(O)O.O=S(=O)(O)O.O=S(=O)(O)O [Netilmicin (sulfate)]
Percentage of motility inhibition 0 h [1]: 0% | Percentage of motility inhibition 24 h [2]: 1%

C[C@@H]1O[C@@H](OC[C@H]2O[C@@H](Oc3c(-c4ccc(O)cc4)oc4cc(O)cc(O)c4c3=O)[C@H](O)[C@@H](O)[C@@H]2O)[C@H](O)[C@H](O)[C@H]1O [Nicotiflorin]
Percentage of motility inhibition 0 h [1]: 4% | Percentage of motility inhibition 24 h [2]: 40%

NC(=O)c1ccc[n+]([O-])c1 [Nicotinamide N‐oxide]
Percentage of motility inhibition 0 h (110 µM): 14% | Percentage of motility inhibition 24 h (110 µM): 32%

NC(=O)c1ccc[n+]([C@@H]2O[C@H](CO)[C@@H](O)[C@H]2O)c1.[Cl-] [Nicotinamide riboside (chloride)]
Percentage of motility inhibition 0 h [1]: 15% | Percentage of motility inhibition 24 h [2]: 0%

NC(=O)c1cccnc1 [Nicotinamide]
Percentage of motility inhibition 24 h [2]: 0% and 10%

O=C([O-])c1ccc[n+]([C@@H]2O[C@H](CO)[C@@H](O)[C@H]2O)c1 [Nicotinic acid riboside]
Percentage of motility inhibition 0 h [1]: 5% | Percentage of motility inhibition 24 h [2]: 0%

C[C@@H]1CC[C@]2(C(=O)O[C@@H]3O[C@H](CO)[C@@H](O)[C@H](O)[C@H]3O)CC[C@]3(C)C(=CC[C@@H]4[C@@]5(C)C[C@@H](O)[C@H](O)[C@@](C)(CO)[C@@H]5CC[C@]43C)[C@@H]2[C@]1(C)O [Niga-ichigoside F1]
Percentage of motility inhibition 0 h [1]: 0% | Percentage of motility inhibition 24 h [2]: 1%

COc1cc2c[n+](C)c3c4cc5c(cc4ccc3c2cc1OC)OCO5.[Cl-] [Nitidine (chloride)]
Percentage of motility inhibition 0 h [1]: 0% | Percentage of motility inhibition 24 h [2]: 7%

NC(=O)c1cc([N+](=O)[O-])cc([N+](=O)[O-])c1 [Nitromide]
Percentage of motility inhibition 0 h [1]: 25% | Percentage of motility inhibition 24 h [2]: 12%

CC(Cc1ccc(O)c(O)c1)C(C)Cc1ccc(O)c(O)c1 (centres unmarked) [Nordihydroguaiaretic acid]
Percentage of motility inhibition 0 h [1]: 8% | Percentage of motility inhibition 24 h [2]: 21%

Cl.NCC(O)c1ccc(O)c(O)c1 (centres unmarked) [Norepinephrine (hydrochloride)]
Percentage of motility inhibition 0 h [1]: 23% and 12%
